{"source": "paper PMC4411102", "about": "(PLoS ONE, 2015)", "key": {"[1]": {"test_system": "HIV", "settings": "cited from earlier work", "source_text": "HIV-1 infection can be targeted at various stages, for example, viral entry, viral replication or assembly of viral components. HIV entry into the host cells is facilitated by binding of viral envelope glycoprotein (gp120) to host CD4 receptor [3, 4]. CD4-gp120 interaction initiates a cascade of events that stimulates gp41 to promote viral and host membrane fusion. Inhibition of gp120-CD4 interaction or virus-host cell fusion thus appears to be an attractive strategy to prevent HIV-1 infection. Towards this, significant advances have been made. […] Moreover, some of the AMPs cause adverse effects on vaginal commensals like lactobacilli which are required to maintain low pH in vaginal mucosa."}, "[2]": {"test_system": "HIV-1 IIIB", "experiment": "Anti-HIV activity, p24 antigen assay in H9 cells", "format": "cell-based", "design": "key to Anti-HIV activity: +: moderate; ++: significant; NA: No activity", "settings": "for Anti-HIV activity (in words): 0.1 MoI HIV-1 IIIB pre-incubated with peptide, H9 cells, p24 on day 4", "method": "Supplementary file pone.0124839.s002.tif: S2 Fig Anti-HIV activity of 3 designed peptides. Anti HIV activity of three peptides was determined using H9 cells. H9 cells were infected for 4 hrs with 0.1 MoI of HIV-1 IIIB pre-incubated with various concentrations of peptides. Peptides were added post infection as well. Supernatant was collected on day 4 post infection, and p24 antigen assay was performed. […] (TIF) Click here for additional data file.\nSupplementary file pone.0124839.s003.tif: S3 Fig Anti-HIV activity of peptide analogues of peptide 1. After modifying the peptide 1, we performed anti-HIV assay as earlier. HIV-1 IIIB was pre-incubated with peptide analogues for 1 hr and then added to H9 cells for 4 hrs. Levels of p24 levels were determined on day 4 post infection. […] (TIF) Click here for additional data file."}, "[3]": {"test_system": "gp120 of HIV-1 IIIB", "experiment": "Binding ELISA, gp120 of HIV-1 IIIB", "settings": "for Binding of designed peptides to gp120: peptide-coated plate, 500ng gp120, 2 hrs at 37°C, 492nm (S1 Fig)", "method": "(§1) After blocking with 3% bovine serum albumin (BSA) in PBS for 30 min, 100 μl of gp120 (100ng/well) in PBS-0.05% BSA was added to each well and incubated for 2 hrs at 37°C. After three washings with PBS-Tween-20 (PBS-T), cells were incubated with anti-gp120 antibody at 1:200 dilution and then with horse radish peroxidase-(HRP) conjugated secondary goat anti-human antibody (1:10000 dilution) for 1 hr at 37°C. This was followed by incubation with O-phenylenediamine for 20 min. The absorbance was measured at 492 nm on a microplate ELISA reader (ELx-800, Bio-Tek Instruments, USA). Background values obtained in the wells without HbAHP-25 were subtracted from the absorbance values from wells having all other reagents.\nSupplementary file pone.0124839.s001.tif: S1 Fig Binding of designed peptides to gp120. Peptides that were designed in silico were evaluated for their binding to gp120 of HIV-1 IIIB. Peptides were coated on 96 well microtiter plate for 16 hrs and then incubated with 500ng of gp120 for 2 hrs at 37°C. This was followed by addition of anti-gp120 antibody, and absorbance was read at 492nm. Background absorbance was subtracted from the wells where peptides were not coated. […] (TIF) Click here for additional data file."}, "[4]": {"test_system": "vaginal mucosa", "settings": "cited from earlier work", "source_text": "Its activity is directed more towards the virus than to host cells. Some of the known anti-HIV peptides such as defensins have better selectivity index, but many of such peptides/molecules act as a double edged-sword. These peptides inhibit HIV infection but also lead to inflammation and/or potentiate pathogen invasion."}, "[5]": {"test_system": "HIV-host cell fusion", "settings": "cited from earlier work"}, "[6]": {"test_system": "CXCR4", "settings": "cited from earlier work"}, "[7]": {"test_system": "gp120 of HIV-1 BaL", "experiment": "Binding ELISA, gp120 of HIV-1 BaL", "settings": "2.2–71.40 μM coated, gp120 100ng/well", "method": "as §1"}, "[8]": {"test_system": "HIV-1 IIIB and ADA5", "experiment": "Time-of-addition assay in TZM-bl cells", "settings": "71.40 μM", "description": "Luciferase activity was measured at 48 hrs post treatment using Luminometer (ELx-800, Bio-Tek Instruments, USA). VRC01 (0.1 μM) antibody was used as a positive control."}, "[9]": {"test_system": "CCR5", "design": "method as in PMID 20721836", "settings": "cited from earlier work"}}, "note": "No end group written: not given here."}
{"compound": "indolicidin: natural antimicrobial peptide (ILPWKWPWWPWRR; not fully specified (C-terminus); ends and bridges not checked; UniProt P33046 131-143, looked up)", "values": [{"measurement": "Anti-HIV activity", "setting": "[1]", "value": "reported to have anti-HIV activity"}]}
{"compound": "human defensin-6: antimicrobial peptide, printed as human defensin-5 and 6 (AFTCHCRRSCYSTEYSYGTCTVMGINHRFCCL; ends and bridges not checked; cysteine pairing not given here; UniProt Q01524 69-100, looked up)", "values": [{"measurement": "Effect on HIV infection", "setting": "[1]", "value": "exacerbate HIV infection"}]}
{"compound": "VKGHGKKVADALTNAVAHVDDMPNALSAL [Peptide-3, Hb-α subunit derived 29-residue peptide (55–83)]", "values": [{"measurement": "Anti-HIV activity (in words)", "setting": "[2]", "value": "showed anti-HIV activity"}, {"measurement": "Anti-HIV activity", "setting": "[2]; class symbols of Table 1, HIV-1 IIIB in H9 cells, p24 (S2, S3 Fig)", "value": "+"}, {"measurement": "Binding of designed peptides to gp120", "setting": "[3]", "value": "showed binding to gp120 of HIV-1 IIIB"}]}
{"compound": "SAQVKGHGKKVADALTNAVAHVDDMPNAL [Peptide-2, Hb-α subunit derived 29-residue peptide (52–80)]", "values": [{"measurement": "Anti-HIV activity (in words)", "setting": "[2]; listed as peptide 2", "value": "failed to demonstrate any activity"}, {"measurement": "Anti-HIV activity (in words)", "setting": "[2]; listed as peptide-2", "value": "did not show any anti-HIV-1 activity"}, {"measurement": "Binding of designed peptides to gp120", "setting": "[3]", "value": "failed to show any binding"}]}
{"compound": "CCCCCCCCCc1ccc(OCCOCCOCCOCCOCCOCCOCCOCCOCCO)cc1", "note": "[Nonoxynol-9]", "values": [{"measurement": "Effects on vaginal mucosa", "setting": "[4]", "value": "caused detrimental effects on vaginal mucosa"}]}
{"compound": "Enfuvirtide", "values": [{"measurement": "Alleviation of HIV infections", "setting": "[1]", "value": "alleviate HIV infections effectively"}, {"measurement": "Resistance on long term treatment", "setting": "[1]; mutations in gp41", "value": "leads to resistance"}, {"measurement": "Effect on HIV-host cell fusion", "setting": "[5]", "value": "interfere with the HIV-host cell fusion"}]}
{"compound": "c1cc(CN2CCCNCCNCCCNCC2)ccc1CN1CCCNCCNCCCNCC1", "note": "[AMD3100]", "values": [{"measurement": "CXCR4 antagonism", "setting": "[6]", "value": "CXCR4 antagonists"}]}
{"compound": "PLVKDVLRSLCNHAHKCVTLALLRH [Scrambled peptide(sP)]", "values": [{"measurement": "Binding to recombinant gp120 of HIV-1 IIIB", "setting": "[3]; ELISA, 2.2–71.40 μM coated, gp120 100ng/well", "value": "did not bind"}, {"measurement": "Binding to recombinant gp120 of HIV-1 BaL", "setting": "[7]", "value": "did not bind"}, {"measurement": "Inhibition (scrambled control)", "setting": "[8]", "value": "no inhibition"}]}
{"compound": "CCCCOCCOc1ccc(-c2ccc3c(c2)/C=C(/C(=O)Nc2ccc([S@@+]([O-])Cc4cncn4CCC)cc2)CCCN3CC(C)C)cc1", "note": "[Cencriviroc]", "values": [{"measurement": "CCR5 antagonism", "setting": "[9]", "value": "CCR5 antagonists"}]}
